{"source": "paper PMC7044277", "about": "(Nature Communications, 2020)", "assay_type_in_all_cases": "cell-based", "key": {"320 non-olfactory GPCRs [1]": {"biological_target": "T1, 320 non-olfactory GPCRs (Homo sapiens, UniProt Q9GZQ6)", "T1 construct": "expressed in transfected cells; host or cells: HTLA cells", "T1 sequence (Q9GZQ6 whole entry)": "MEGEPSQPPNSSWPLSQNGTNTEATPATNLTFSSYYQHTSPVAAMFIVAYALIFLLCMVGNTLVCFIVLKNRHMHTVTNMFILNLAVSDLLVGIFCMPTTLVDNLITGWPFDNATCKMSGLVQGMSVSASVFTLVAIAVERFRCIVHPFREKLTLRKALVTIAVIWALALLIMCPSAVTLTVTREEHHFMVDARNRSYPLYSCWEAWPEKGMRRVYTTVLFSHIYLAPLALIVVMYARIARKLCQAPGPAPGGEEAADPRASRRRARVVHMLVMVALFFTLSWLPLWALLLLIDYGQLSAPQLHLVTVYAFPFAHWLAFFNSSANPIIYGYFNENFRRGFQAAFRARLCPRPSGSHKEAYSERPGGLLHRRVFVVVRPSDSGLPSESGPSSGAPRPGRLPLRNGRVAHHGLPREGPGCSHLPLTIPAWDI", "conditions": "receptor NPFF1; replicate values, Fig_4g"}, "320 non-olfactory GPCRs [2]": {"biological_target": "T2, 320 non-olfactory GPCRs (Homo sapiens, UniProt P48039)", "T2 construct": "expressed in transfected cells; host or cells: HTLA cells", "T2 sequence (P48039 whole entry)": "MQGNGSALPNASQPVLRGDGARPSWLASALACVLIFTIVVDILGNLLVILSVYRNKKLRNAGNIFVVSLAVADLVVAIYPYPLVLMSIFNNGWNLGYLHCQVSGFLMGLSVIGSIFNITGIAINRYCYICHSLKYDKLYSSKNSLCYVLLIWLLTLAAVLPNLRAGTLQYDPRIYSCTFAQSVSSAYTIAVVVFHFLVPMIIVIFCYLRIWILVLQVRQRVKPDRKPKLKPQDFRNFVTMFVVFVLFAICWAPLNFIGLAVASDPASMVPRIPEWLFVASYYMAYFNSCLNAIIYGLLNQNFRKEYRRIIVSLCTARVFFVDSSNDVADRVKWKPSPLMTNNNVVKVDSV", "conditions": "receptor MTNR1A; replicate values, Fig_4g"}, "320 non-olfactory GPCRs [3]": {"biological_target": "T3, 320 non-olfactory GPCRs (Homo sapiens, UniProt Q01726)", "T3 construct": "expressed in transfected cells; host or cells: HTLA cells", "T3 sequence (Q01726 whole entry)": "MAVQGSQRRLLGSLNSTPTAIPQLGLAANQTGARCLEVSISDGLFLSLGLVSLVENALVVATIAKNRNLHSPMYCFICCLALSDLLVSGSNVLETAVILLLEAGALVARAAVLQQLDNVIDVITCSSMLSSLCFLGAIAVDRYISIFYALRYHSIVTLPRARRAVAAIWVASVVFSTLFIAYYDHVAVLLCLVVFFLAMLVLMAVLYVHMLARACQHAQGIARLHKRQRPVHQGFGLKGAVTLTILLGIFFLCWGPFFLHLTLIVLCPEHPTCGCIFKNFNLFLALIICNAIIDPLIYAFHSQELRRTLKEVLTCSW", "conditions": "receptor MC1R; replicate values, Fig_4g"}, "320 non-olfactory GPCRs [4]": {"biological_target": "T4, 320 non-olfactory GPCRs (Homo sapiens, UniProt Q99788)", "T4 construct": "expressed in transfected cells; host or cells: HTLA cells", "T4 sequence (Q99788 whole entry)": "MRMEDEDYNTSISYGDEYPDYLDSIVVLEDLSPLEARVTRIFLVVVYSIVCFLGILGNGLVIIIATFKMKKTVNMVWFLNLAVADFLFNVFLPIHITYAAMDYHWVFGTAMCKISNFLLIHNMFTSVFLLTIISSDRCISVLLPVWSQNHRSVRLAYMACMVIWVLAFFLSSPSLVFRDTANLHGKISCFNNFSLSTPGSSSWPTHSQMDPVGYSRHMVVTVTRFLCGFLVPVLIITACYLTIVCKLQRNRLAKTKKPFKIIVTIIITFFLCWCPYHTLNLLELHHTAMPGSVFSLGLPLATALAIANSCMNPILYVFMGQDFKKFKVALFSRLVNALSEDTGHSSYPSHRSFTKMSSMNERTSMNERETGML"}}, "note": "Where “and” joins values, the source holds several entries; their conditions need not be identical. Identical values can stand only once.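 Wherever Fold of Basal is given: compound tested at 1 µM final concentration.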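 Wherever GPCRome agonism screen response is given: fold over basal response of each receptor without drug.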", "data": [{"smiles": "CCOc1cccc2cc(C(C)NCC3(O)CCCCC3)oc12", "note": "(stereo not shown) [O4LE6]", "values": [{"measurement": "GPCRome agonism screen response", "setting": "320 non-olfactory GPCRs [1]", "result": "1.802 and 0.79 and 0.7669 and 0.6228"}, {"measurement": "GPCRome agonism screen response", "setting": "320 non-olfactory GPCRs [2]", "result": "2.743 and 4.229 and 2.242 and 2.817"}, {"measurement": "GPCRome agonism screen response", "setting": "320 non-olfactory GPCRs [3]", "result": "1.144 and 0.3717 and 0.6675 and 1.8673"}, {"measurement": "Fold of Basal", "setting": "320 non-olfactory GPCRs [4]", "result": "0.9321 and 1.173 and 0.7369 and 1.152"}]}]}
